Experimental data: patent US8916575B2, “Quinazoline derivatives for the treatment of viral infections and further diseases” (Janssen R&D Ireland, priority 2011, dated 2014)

Columns and labels:
[1] = target: T1, human TLR8 (Homo sapiens, UniProt Q9NR97); test: TLR8 wild type NFκB-luc cellular reporter assay; assay type: cell-based; parameters: unit not given here; details: HEK293 NFκB-luc reporter, 6 hours incubation; second part of table
T1 construct: expressed in transfected cells; host or cells: HEK293
T1 sequence (Q9NR97 27-1041): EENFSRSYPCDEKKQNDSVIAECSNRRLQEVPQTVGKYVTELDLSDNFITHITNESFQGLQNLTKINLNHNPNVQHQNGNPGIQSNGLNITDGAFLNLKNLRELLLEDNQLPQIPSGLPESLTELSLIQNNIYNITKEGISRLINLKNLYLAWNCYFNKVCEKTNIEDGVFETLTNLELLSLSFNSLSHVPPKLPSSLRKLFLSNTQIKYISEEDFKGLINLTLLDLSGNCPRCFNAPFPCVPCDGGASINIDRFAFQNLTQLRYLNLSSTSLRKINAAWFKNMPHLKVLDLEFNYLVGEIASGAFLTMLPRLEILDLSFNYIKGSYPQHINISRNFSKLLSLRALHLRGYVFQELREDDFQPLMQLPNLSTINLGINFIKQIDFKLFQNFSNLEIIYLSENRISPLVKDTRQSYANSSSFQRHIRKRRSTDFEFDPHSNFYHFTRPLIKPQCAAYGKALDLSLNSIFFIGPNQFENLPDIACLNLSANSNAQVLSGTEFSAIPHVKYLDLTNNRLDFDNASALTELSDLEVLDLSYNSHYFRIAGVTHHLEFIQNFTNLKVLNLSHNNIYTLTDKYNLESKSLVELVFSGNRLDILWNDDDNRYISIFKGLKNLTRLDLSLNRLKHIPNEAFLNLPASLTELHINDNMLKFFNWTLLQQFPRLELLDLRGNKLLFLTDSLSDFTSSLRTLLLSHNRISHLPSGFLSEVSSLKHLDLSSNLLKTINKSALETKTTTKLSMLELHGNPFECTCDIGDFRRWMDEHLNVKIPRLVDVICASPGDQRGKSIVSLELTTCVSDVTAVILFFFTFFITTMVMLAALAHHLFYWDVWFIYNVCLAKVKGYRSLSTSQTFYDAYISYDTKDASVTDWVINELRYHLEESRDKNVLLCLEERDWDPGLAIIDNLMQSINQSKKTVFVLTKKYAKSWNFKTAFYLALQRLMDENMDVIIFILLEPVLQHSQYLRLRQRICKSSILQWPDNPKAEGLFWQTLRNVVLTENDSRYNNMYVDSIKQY
Outline: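 HEK293 cells transiently transfected with wild-type or second-LRR-deletion (dIRR2) TLR7/TLR8 plasmid plus NFκB-luc, 24 h; compound added for 6 h at 37 °C. Luciferase read-out, quadruplicate dose responses. LEC = lowest concentration giving effect at least two-fold above assay SD.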

[2] = tested on: interferon-stimulated responsive elements (ISRE); test: Activation of ISRE promoter elements by conditioned media from PBMC (HEK-ISREluc); assay type: cell-based, human; parameters: unit not given here; details: compound applied to PBMCs, supernatant transferred to HEK-ISREluc cells, 24 hours
Description: The potential of compounds to induce IFN-I was also evaluated by measuring the activation of interferon-stimulated responsive elements (ISRE) by conditioned media from PBMC. The ISRE element of sequence GAAACTGAAACT is highly responsive to the STAT1-STAT2-IRF9 transcription factor, activated upon binding of IFN-I to their receptor IFNAR (Clontech, PT3372-5W). The plasmid pISRE-Luc from Clontech (ref. 631913) contains 5 copies of this ISRE element, followed by the firefly luciferase ORF. A HEK293 cell line stably transfected with pISRE-Luc (HEK-ISREluc) was established to profile of the conditioned PBMC cell culture media.
Briefly, PBMCs were prepared from buffy coats of at least two donors using a standard Ficoll centrifugation protocol. Isolated PBMCs were resuspended in RPMI medium supplemented with 10% human AB serum and 2×10^5 cells/well were dispensed into 384-well plates containing compounds (70 μL total volume). After overnight incubation, 10 μL of supernatant was transferred to 384-well plates containing 5×10^3 HEK-ISREluc cells/well in 30 μL (plated the day before). Following 24 hours of incubation, activation of the ISRE elements was measured by assaying luciferase activity using 40 μL/well Steady Lite Plus substrate (Perkin Elmer) and measured with ViewLux ultraHTS microplate imager (Perkin Elmer). The stimulating activity of each compound on the HEK-ISREluc cells was reported as LEC value, defined as the compound concentration applied to the PBMCs resulting in a luciferase activity at least two fold above the standard deviation of the assay. The LEC in turn indicates the degree of ISRE activation on transfer of a defined amount of PBMC culture medium. Recombinant interferon α-2a (Roferon-A) was used as a standard control compound.

| Structure (SMILES) | TLR8-wt (LEC) [1] | HEK-ISRE luc (LEC) [2] |
| --- | --- | --- |
| CCCCNc1nc(N)nc2cccc(C)c12 [Compound 36] | 0.26 | 0.32 |
| CCCCNc1nc(N)nc2ccc(F)cc12 [Compound 38] | 0.10 | 0.11 |
| CCCCNc1nc(N)nc2ccc(-n3cnc(C)c3)cc12 [Compound 21] | 2.55 | 12.06 |
| CCCCNc1nc(N)nc2ccc(Oc3ccc(C(F)(F)F)cc3Cl)cc12 [Compound 35] | >25 | >23.81 |
| CCCC[C@@H](CCO)Nc1nc(N)nc2c(F)cccc12 [Compound 81] | 0.16 | 0.05 |
| CCC[C@@H](CCO)Nc1nc(N)nc2cc(F)ccc12 [Compound 64] | 0.03 | 0.04 |
| CCC[C@@H](CO)Nc1nc(N)nc2cccc(C)c12 [Compound 46] | 0.04 | 0.07 |
| CCC[C@@H](CO)Nc1nc(N)nc2ccc(OC)cc12 [Compound 57] | 0.53 | 2.08 |
| CCC[C@@H](CO)Nc1nc(N)nc2cccc(Cl)c12 [Compound 71] | 0.01 | 0.03 |
| CCC[C@@H](CO)Nc1nc(N)nc2c(C)cccc12 [Compound 43] | 0.12 | 0.59 |
| CCC[C@@H](CCO)Nc1nc(N)nc2ccc(Oc3ccc(C(F)(F)F)cc3)cc12 [Compound 29] | >25 | >23.81 |
